Series [1] has as its system HIV-1 (IIIB) in MT-4 cells. Nature of the series: microbe, parasite or virus in culture. The format is cell-based.
Another series addresses recombinant human BACE-1 (Homo sapiens (Human), UniProt P56817). As to the kind of experiment: Beta-secretase (BACE) inhibition assay, fluorogenic enzymatic assay. The format is biochemical. The procedure: Beta-Secretase (BACE) Inhibition Assay
Inhibitory potency against β-secretase (BACE) was measured using an enzymatic assay with a fluorogenic readout. 50 nM of recombinant human BACE-1 (R&D Systems) and test compound at one of various concentrations were added to a reaction buffer containing 20 mM sodium acetate at pH 4.8, with 0.06% Triton X-100, and 1% DMSO. […] The total volume of the assay solution was 100 μL. […] The slopes of the progress curves were the measure of reaction rates. Reaction rates were plotted as a function of inhibitor concentration, and the data were fit with a four-parameter logistic fit using Graphpad PRISM software to yield IC50 values.

Series [2] in a line: Liver microsomal stability, human liver microsomes. To be noted: human. As to the method:
Liver Microsomal Stability Protocol
Test compounds and one control compound (verapamil) were tested in 3 different species in duplicate sets.
Test compound concentration: 1 uM; Protein concentration: 0.5 mg/mL (for dog, rat, and human liver microsomes); Cofactor: NADPH-Regenerating system (NRS) solution; Time-points: 2, 12, 25, 45, and 65 minutes.
Reaction Composition (in Each Incubation Well) Contains:
At an incubation temperature of 37° C., the reaction was started with addition of NADPH Regeneration System, at each time point, 25 uL of the reaction mixture was removed and added to a plate with 225 uL quenching solution (50% MeOH, 25% ACN, 25% H2O, and 200 nM labetalol as internal standard). After plates were vortexed, they were centrifuged for 30 minutes to remove proteins. About 100 μL supernatant was removed to a new plate and diluted with 150 μL water. About 20 μL of the mixture was injected into LC/MS/MS system to monitor the compound's response. In vitro measured t1/2 was used to calculate Clint values.

Where [3] appears, read: MT-4 cells, HIV-1, read-out: MT4 EC50.
Setting [4] is: Human immunodeficiency virus 1, IIIB, MT4, MT-4 cells, HIV-1, read-out: MT4 EC50.

Like-named read-outs stand apart in the source and are kept apart here.

recombinant human BACE-1, sequence (P56817 46-501): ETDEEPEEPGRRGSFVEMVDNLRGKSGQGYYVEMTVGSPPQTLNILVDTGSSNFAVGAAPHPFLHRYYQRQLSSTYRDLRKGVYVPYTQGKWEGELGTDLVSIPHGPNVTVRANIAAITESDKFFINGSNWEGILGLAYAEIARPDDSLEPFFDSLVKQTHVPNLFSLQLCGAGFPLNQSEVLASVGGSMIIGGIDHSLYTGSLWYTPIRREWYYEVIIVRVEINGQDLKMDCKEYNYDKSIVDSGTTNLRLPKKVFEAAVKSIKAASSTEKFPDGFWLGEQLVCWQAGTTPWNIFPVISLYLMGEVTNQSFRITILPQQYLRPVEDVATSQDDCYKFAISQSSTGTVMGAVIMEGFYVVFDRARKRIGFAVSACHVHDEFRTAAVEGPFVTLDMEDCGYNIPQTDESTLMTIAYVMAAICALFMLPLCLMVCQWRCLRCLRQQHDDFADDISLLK

As for `CC(C)(C)C[C@]1(c2ccc(-c3cnn(C(F)F)c3)cc2)NC(=N)N([C@H](COC(=O)N[C@@H]2CC2(F)F)c2ccc(Cl)c(-n3ncnc3C(F)F)c2)C1=O` (single isomer, unassigned) [Compound 335], the EC50 in series [1] (setting [3]) stood at 5.59 nM. The IC50 at recombinant human BACE-1 is above 100000 nM.
Consider `CC1(NC(=O)OC[C@H](c2ccc(Cl)c(-c3ncn[nH]3)c2)N2C(=N)N[C@](CC(C)(C)C(F)(F)F)(c3ccc(-c4cnn(C(F)F)c4)cc3)C2=O)CC1` [Compound 32], for which, in series [1] (setting [4]), the EC50 came to 69.2 nM. The IC50 at recombinant human BACE-1 was above 100000 nM.
For `CC(C)(C)C[C@]1(c2ccc(-c3cnn(C(F)F)c3)cc2)NC(=N)N([C@H](COC(=O)NC(C)(C)C(F)F)c2ccc(Cl)c(-c3ncnn3C(F)F)c2)C1=O` [Compound 90] the same measures were 12.2 nM and above 100000 nM.
For `CC(C)(C)C[C@]1(c2ccc(-c3cnn(C(F)F)c3)cc2)NC(=N)N([C@H](COC(=O)NC2(C(F)(F)F)CC2)c2ccc(Cl)c(-c3ncnn3C(F)F)c2)C1=O` [Compound 113] the same measures were 7.75 nM and above 100000 nM.
In the case of `CC(C)(F)C[C@]1(c2ccc(-c3cnn(C4CC4)c3)cc2)NC(=N)N([C@H](COC(=O)NC2(C(F)(F)F)CC2)c2ccc(Cl)c(-c3ncnn3C(F)F)c2)C1=O` [Compound 131], the EC50 in series [1] (setting [4]) stood at 20.8 nM. In addition, on recombinant human BACE-1, the half-maximal inhibitory concentration (IC50) was above 100000 nM. In series [2] (liver microsomes), the half-life at 1 uM was at least 6.58 h.
For `CC(C)(C)C[C@]1(c2ccc(-c3cnn(C4CC4)n3)cc2)NC(=N)N([C@H](COC(=O)NC2(C(F)(F)F)CC2)c2ccc(Cl)c(-c3ncnn3C(F)F)c2)C1=O` [Compound 146] the same measures were 10.3 nM, above 100000 nM and at least 6.58 h.
For `CC(C)(C[C@]1(c2ccc(-c3cnn(C4CC4)n3)cc2)NC(=N)N([C@H](COC(=O)NC2(C(F)(F)F)CC2)c2ccc(Cl)c(-c3ncnn3C(F)F)c2)C1=O)C(F)(F)F` [Compound 152], in that order: 13 nM, above 100000 nM and at least 6.58 h.
With `CC(C)(C[C@]1(c2ccc(-c3cnn(C4CC4)n3)cc2)NC(=N)N([C@H](COC(=O)NC2(C(F)F)CC2)c2ccc(Cl)c(-c3ncnn3C(F)F)c2)C1=O)C(F)(F)F` [Compound 155], the EC50 in series [1] (setting [4]) turned out to be 9.87 nM. The IC50 at recombinant human BACE-1 was above 100000 nM. Moreover, the half-life at 1 uM in series [2] (liver microsomes) was at least 6.58 h.
For `CC(C)(C)C[C@]1(c2ccc(-c3cnn(C(F)F)c3)cc2)NC(=N)N([C@H](COC(=O)NC2(C(F)(F)F)CC2)c2ccc(Cl)c(-n3ncnc3C(F)F)c2)C1=O` [Compound 177], the 50% effective concentration (EC50) in series [1] (setting [4]) stood at 9.81 nM. Further, the 50% inhibitory concentration (IC50) at recombinant human BACE-1 is above 100000 nM.
For `CC(C)(C)C[C@]1(c2ccc(-c3cnn(C(F)F)c3)cc2)NC(=N)N([C@H](COC(=O)NC(C)(C)C(F)F)c2ccc(Cl)c(-n3ncnc3C(F)F)c2)C1=O` [Compound 185], in that order: 12.6 nM and above 100000 nM.
Take `CC(C)(F)C[C@]1(c2ccc(-c3cnn(C(F)F)c3)cc2)NC(=N)N([C@H](COC(=O)NC2(C(F)(F)F)CC2)c2ccc(Cl)c(-n3ncnc3C(F)F)c2)C1=O` [Compound 194]: the EC50 in series [1] (setting [4]) was 14.8 nM. Further, on recombinant human BACE-1, the IC50 was above 100000 nM. This molecule also returned a half-life at 1 uM in series [2] (liver microsomes) of at least 6.58 h.
For `CC(C)(C)C[C@]1(c2ccc(-c3cnn(C(F)F)c3)cc2F)NC(=N)N([C@H](COC(=O)NC2(C(F)(F)F)CC2)c2ccc(Cl)c(-n3ncnc3C(F)F)c2)C1=O` [Compound 195], in that order: 10.5 nM, above 100000 nM and at least 6.58 h.
Regarding `CC(C)(C)C[C@]1(c2ccc(-c3ccnn3C(F)F)cc2)NC(=N)N([C@H](COC(=O)NC2(C(F)(F)F)CC2)c2ccc(Cl)c(-n3ncnc3C(F)F)c2)C1=O` [Compound 212], the EC50 in series [1] (setting [3]) was determined as 11.9 nM. Moreover, the IC50 at recombinant human BACE-1 (50 nM recombinant human BACE-1, pH 4.8, read-out: BACE IC50) is above 100000 nM.
As to `CC(C)(C)C[C@]1(c2ccc(-c3cnn(C(F)F)c3)cc2)NC(=N)N([C@H](COC(=O)NCC(F)(F)F)c2ccc(Cl)c(-n3ncnc3C(F)F)c2)C1=O` [Compound 218], the EC50 in series [1] (setting [4]) stood at 9.89 nM. For the same molecule, at recombinant human BACE-1, the IC50 is above 100000 nM.
Regarding `CC(C)(C)C[C@]1(c2ccc(-c3cnn(C4CC4)n3)cc2)NC(=N)N([C@H](COC(=O)NC2(C(F)(F)F)CC2)c2ccc(Cl)c(-n3ncnc3C(F)F)c2)C1=O` [Compound 223], the EC50 in series [1] (setting [4]) came to 13.1 nM. Besides, on recombinant human BACE-1, the IC50 was above 100000 nM. Moreover, in series [2] (liver microsomes), the half-life at 1 uM was at least 6.58 h.
With `CN(C(=O)OC[C@H](c1ccc(Cl)c(-n2cncn2)c1)N1C(=N)N[C@](CC(C)(C)C)(c2ccc(-c3cnn(C4CC4)c3)cc2)C1=O)C1CC1` [Compound 244], the EC50 in series [1] (setting [4]) is 7.66 nM. Moreover, the IC50 at recombinant human BACE-1 was above 100000 nM.
For `CC(C)(C[C@]1(c2ccc(-c3cnn(C4CC4)n3)cc2)NC(=N)N([C@H](COC(=O)NC2(C(F)F)CC2)c2ccc(Cl)c(-n3ncnc3C(F)F)c2)C1=O)C(F)(F)F` [Compound 271] the same measures were 12.6 nM and above 100000 nM.
As to `CC(C)(C)C[C@]1(c2ccc(-c3cnn(S(C)(=O)=O)c3)cc2F)NC(=N)N([C@H](COC(=O)NC2(C(F)(F)F)CC2)c2ccc(Cl)c(-n3ncnc3C(F)F)c2)C1=O` [Compound 286], in series [1] (setting [4]), the EC50 was found to be 9.61 nM. Also, the IC50 at recombinant human BACE-1 was above 100000 nM.
As for `CC(C[C@]1(c2ccc(-c3cnn(C(F)F)c3)cc2)NC(=N)N([C@H](COC(=O)NC2(C(F)(F)F)CC2)c2ccc(Cl)c(-n3ncnc3C(F)F)c2)C1=O)CS(C)(=O)=O` (stereo partly drawn) [Compound 345], the EC50 in series [1] (setting [4]) is 134 nM. In addition, the half-life at 1 uM in series [2] (liver microsomes) was at least 6.58 h.
For `CC(C)(C)C[C@]1(c2ccc3c(C(F)F)nccc3c2)NC(=N)N([C@H](COC(=O)NC2(C(F)(F)F)CC2)c2ccc(Cl)c(-n3ncnc3C(F)F)c2)C1=O` [Compound 348], in series [1] (setting [4]), the EC50 amounted to 7.46 nM. Further, the IC50 on recombinant human BACE-1 was above 100000 nM.
Regarding `Cn1c(=O)ccc2cc([C@@]3(CC(C)(C)C)NC(=N)N([C@H](COC(=O)NC4(C(F)(F)F)CC4)c4ccc(Cl)c(-n5ncnc5C(F)F)c4)C3=O)ccc21` [Compound 349], the EC50 in series [1] (Human immunodeficiency virus 1, IIIB, MT4, read-out: MT4 EC50 (nM)) amounted to 36 nM. Besides, the IC50 on recombinant human BACE-1 is above 100000 nM.
`CC(C)(C)C[C@]1(c2ccc3nc(-c4cnn(C(F)F)c4)ccc3c2)NC(=N)N([C@H](COC(=O)NC2(C(F)(F)F)CC2)c2ccc(Cl)c(-n3ncnc3C(F)F)c2)C1=O` [Compound 350]: in series [1] (setting [4]), the EC50 stood at 8.9 nM. This molecule showed a half-life at 1 uM in series [2] (liver microsomes) of at least 6.58 h.
As for `CC(C)(C)C[C@]1(c2ccc(-n3ccnn3)cc2)NC(=N)N([C@H](COC(=O)NC2(C(F)(F)F)CC2)c2ccc(Cl)c(-n3ncnc3C(F)F)c2)C1=O` [Compound 351], in series [1] (setting [4]), the EC50 is 17.9 nM. The molecule also returned a half-life at 1 uM in series [2] (human liver microsomes) of at least 6.58 h.
For `CC(C)(C)C[C@]1(c2ccc(-c3cn(C4CC4)nn3)c(F)c2)NC(=N)N([C@H](COC(=O)NC2(C(F)(F)F)CC2)c2ccc(Cl)c(-n3ncnc3C(F)F)c2)C1=O` [Compound 352], in series [1] (setting [4]), the EC50 came out at 10.9 nM. Further, in series [2] (liver microsomes), the half-life at 1 uM was at least 6.58 h.
In the case of `CC(C)(C)C[C@]1(c2ccc(-n3cnnc3)cc2)NC(=N)N([C@H](COC(=O)NC2(C(F)(F)F)CC2)c2ccc(Cl)c(-n3ncnc3C(F)F)c2)C1=O` [Compound 359], the EC50 in series [1] (setting [4]) turned out to be 424 nM. This molecule showed a half-life at 1 uM in series [2] (liver microsomes) of at least 6.58 h.
Regarding `CC(C)(C)C[C@]1(c2ccc(C#Cc3cnn(C(F)F)c3)c(F)c2)NC(=N)N([C@H](COC(=O)NC2(C(F)(F)F)CC2)c2ccc(Cl)c(-n3ncnc3C(F)F)c2)C1=O` [Compound 361], in series [1] (setting [4]), the EC50 was 82 nM. In addition, the half-life at 1 uM in series [2] (liver microsomes) is at least 6.58 h.
For `C[C@H](NC(=O)OC[C@H](c1ccc(Cl)c(-n2ncnc2C(F)F)c1)N1C(=N)N[C@](CC(C)(C)C)(c2ccc(-c3cn(C4(C(F)(F)F)CC4)nn3)cc2)C1=O)C(F)(F)F` [Compound 363] the same measures were 11.7 nM and at least 6.58 h.
As to `CC(C)(C)C[C@]1(c2ccc(-c3cn[nH]n3)cc2)NC(=N)N([C@H](COC(=O)NC2(C(F)(F)F)CC2)c2ccc(Cl)c(-n3ncnc3C(F)F)c2)C1=O` [Compound 372], the EC50 in series [1] (setting [4]) came out at 47.3 nM. The half-life at 1 uM in series [2] (liver microsomes) was at least 6.58 h.
In the case of `CC(C)(C)C[C@]1(c2ccc(-c3cnn(C4CC4)n3)cc2)NC(=N)N([C@H](CNS(=O)(=O)C2CC2)c2ccc(Cl)c(-n3ncnc3C(F)F)c2)C1=O` [Compound 387], in series [1] (setting [4]), the EC50 came to 47.9 nM. For the same molecule, the half-life at 1 uM in series [2] (liver microsomes) was at least 6.58 h.
For `CC(C)(C[C@]1(c2ccc(-c3cnn(C4CC4)n3)cc2)NC(=N)N([C@H](CNC(=O)CC(F)(F)F)c2ccc(Cl)c(-n3ncnc3C(F)F)c2)C1=O)C(F)(F)F` [Compound 391], in that order: 12.5 nM and at least 6.58 h.
Take `CC(C)(C[C@]1(c2ccc(-c3cnn(C4CC4)n3)cc2)NC(=N)N([C@H](CNC(=O)OC2CC2)c2ccc(Cl)c(-n3ncnc3C(F)F)c2)C1=O)C(F)(F)F` [Compound 392]: the EC50 in series [1] (setting [4]) is 24.3 nM. In addition, the half-life at 1 uM in series [2] (liver microsomes) is at least 6.58 h.

In general, EC50 refers to the concentration needed to bring the measured effect to its halfway point. In general, IC50 refers to the concentration that inhibits the measured activity by half. What is called half-life is the time needed for the level to fall by half in the phase considered.
